According to PMC6778101 (Nature Communications, 2019):
Read-outs that look alike come from different tables or passages of the source. Ends that are not written are not given here.

Assays:
Format in all cases: cell-based, Escherichia coli
[1] = test system: E. coli K-12 BW25113; test: microbe, parasite or virus in culture
Description: Unless otherwise indicated, Minimal Salt (MS) medium was used in all experiments, including the laboratory evolution experiments. In line with previous, methodologically relevant laboratory evolution studies, the physical conditions (including the medium) were the same during the course of laboratory evolution and all forthcoming assays on the resulting resistant lines (e.g. MIC measurements). We previously optimized this medium for studying AMPs (1 g L^−1 (NH4)2SO4, 3 g L^−1 KH2PO4 and 7 g L^−1 K2HPO4 supplemented with 0.1 mM MgSO4, 0.54 µg mL^−1 FeCl3, 1 µg mL^−1 thiamine hydrochloride, 0.2% Casamino acids and 0.2% glucose)[19]. This medium is highly controlled and provides a reproducible environment for experimental evolution experiments. All components were obtained from Sigma-Aldrich.
MICs were determined using a standard serial broth dilution technique. Briefly, 11-step serial dilutions were prepared in 96-well microtiter plates with three replicates per strain and antimicrobial compound. Each experiment was repeated at least twice. 5 × 10^5 cells/mL were inoculated into each well, and the plates were incubated at 30 °C in case of E. coli K-12 BW25113, and its antibiotic and AMP-adapted lines, or 37 °C in case of the other bacterial species. […] Cell growth was monitored by measuring the optical density (OD600 value, Biotek Synergy 2 microplate reader was used for this purpose). […] Relative MIC was calculated as follows: MICrelative = MICevolved/MICcontrol.

[2] = test system: E. coli K-12 BW25113 carrying ASKA plasmids; test: microbe, parasite or virus in culture; conditions: MS medium + 10 µg mL−1 CHL + 500 µM IPTG, 5 × 10^5 cells, 16–18 h, 37 °C; for MIC: Escherichia coli
Description: Bacterial gene amplification generates extensive genetic variation that can provide drug resistance[37],[38]. As gene amplification events tend to be genetically unstable and reduce bacterial fitness, they are transient in nature. Using the ASKA library, which comprises each E. coli ORF cloned into an expression vector[40], we have conducted a global survey to evaluate whether artificially amplified genes provide resistance to any of the 14 AMPs and 11 antibiotics tested. As chloramphenicol (CHL) was used as a selection marker for the ASKA plasmid, this antibiotic was not tested in this screen. E. coli K-12 BW25113 cells were transformed with the pooled plasmids of the ASKA library, and the genetically mixed populations were exposed to increasing levels of AMP or antibiotic stresses, respectively. In all cases, the employed AMP or antibiotic dosages were above the MIC of the wild type. For each drug, we identified the MIC provided in the pooled ASKA plasmid library, and compared it to the MIC of the wild-type strain carrying the empty ASKA plasmid.
The ASKA library (a complete set of E. coli K-12 ORF archive) includes every E. coli ORF cloned into an expression vector (pCA24N)[65]. Prior to screening, the ASKA plasmid collection was pooled and transformed into E. coli K-12 BW25113 strain[66]. The plasmid pool was created by pooling an equal aliquot of cells, each carrying different members of the ASKA library, followed by plasmid miniprep. Next, the plasmid pool was electroporated into E. coli K-12 BW25113 competent cells. […] For the MICs measurements 500 000 cells were inoculated in each well which represents ~100 times coverage of each library member. […] Prior to the measurements the cell population containing the pooled overexpression library or the control strain containing the empty vector were grown in three replicates in LB medium supplemented with 20 µg/mL CHL. As the culture reached high density (i.e., OD600 > 0.8), expression of the plasmid was induced by 50 µM IPTG for 1 h. Following induction, 5 × 10^5 bacterial cells were inoculated in three replicates into each well of the 96-well plate and incubated for 16–18 h at 37 °C. Following incubation the MIC values were determined by measuring optical densities in a plate reader (Biotek Synergy).

[3] = test system: E.coli K-12 BW25113; conditions: for MIC (freshly prepared AMP): plates inoculated immediately; for MIC (pre-incubated AMP): plates pre-incubated 72 hours before inoculation
Description: MICs were determined using a standard serial broth dilution technique. Briefly, 11-step serial dilutions were prepared in 96-well microtiter plates with three replicates per strain and antimicrobial compound. Each experiment was repeated at least twice. 5 × 10^5 cells/mL were inoculated into each well, and the plates were incubated at 30 °C in case of E. coli K-12 BW25113, and its antibiotic and AMP-adapted lines, or 37 °C in case of the other bacterial species. Plates were shaken at 300 r.p.m. during incubation for 24 and 18 h, respectively. Cell growth was monitored by measuring the optical density (OD600 value, Biotek Synergy 2 microplate reader was used for this purpose). […] Relative MIC was calculated as follows: MICrelative = MICevolved/MICcontrol.
Supplementary Table 7- Effect of incubation time on the minimum inhibitory concentration (MIC) of AMPs. We tested whether the prolonged incubation time can affect the MIC of AMPs. To test this, two sets of AMP containing MIC plates were prepared in parallel. The first set was immediately inoculated with E.coli K-12 BW25113, while the second set was pre-incubated 72 hours before inoculation with the […]
observed in the MIC between freshly prepared and pre-incubated plates. […]

[4] = test system: antibiotic- and AMP-adapted E. coli K-12 BW25113 lines; test: High-throughput fitness measurement of adapted lines (area under growth curve, drug-free medium); conditions: adapted line APC1
Description: We estimated fitness by measuring growth of these strains and the corresponding wild-type in antibiotic-free medium (“Methods”). […] As might be expected, fitness costs varied substantially across antibiotics and AMPs (Fig. 1b). […] This pattern is unlikely to reflect differences in the level of resistance between AMP and antibiotic strains, respectively. There is only a weak, marginally significant negative correlation between the level of resistance and fitness cost (Supplementary Fig. 1, Spearman’s rho = −0.24, P = 0.016 (N = 98)), and this correlation becomes non-significant after controlling for drug type (P = 0.6 and P = 0.39 for antibiotics (N = 60) and AMPs (N = 38) respectively, Spearman’s correlation).
Bacterial cell growth was assayed by continuously monitoring the optical density (OD600) of liquid cultures using 384-well microtiter plates containing MS medium, the same medium used during the laboratory evolution. Fitness was measured for a total of 60 antibiotic-adapted and the 38 AMP-adapted E. coli K-12 BW25113 lines (at least four lines per antibiotic or AMP). All measurements were performed twice (six technical replicates per experiment). Starter cultures were inoculated into 96-well plates containing MS medium and incubated for 20 h at 30 °C for E. coli K-12 BW25113 and its evolved lines. After this growth period, the OD600 of each culture was read and the starting cell number set to a final of 50,000 cells per well to a final volume of 60 µl. A total of 384-well plates were inoculated combining four different 96-well starter plates together: one plate having the unevolved wild-type control as a reference strain in all wells in order to estimate possible variation in growth within-plate measurement causing biases to the reading, and three plates containing the different set of antibiotic or AMP-adapted lines. Cell growth was monitored by measuring the optical density at 600 nm every 5 min (OD600 value, Biotek Synergy 2 microplate reader was used for this purpose). The integral data was calculated by the Biotek Gen5 Data Analysis Software between 1 and 24 h in case of E. coli K-12 BW25113 adapted lines. Because of possible influence of temperature equilibration in the first hour of measurement, this time period was excluded from the analysis.

[5] = starting wild-type strain of the evolution experiment, broth dilution, MS medium, 5 × 10^5 cells/mL, 30 °C, 24 h, MIC = OD600 < 0.05
[6] = time allowed for bacterial growth 48 hours
[7] = time allowed for bacterial growth 24 hours
[8] = time allowed for bacterial growth 72 hours
[9] = replicate 1 (first line of the sheet)

Compound	MIC [1, 5] [µg/mL]	MIC value of E. coli K-12 BW25113 carrying the empty plasmid of the ASKA library ([2]; Replicate 1) [µg/mL]	MIC value of E. coli K-12 BW25113 carrying the pooled plasmids of the ASKA library ([2]; Replicate 1) [µg/mL]	MIC value of E. coli K-12 BW25113 carrying the empty plasmid of the ASKA library ([2]; Replicate 2) [µg/mL]	MIC value of E. coli K-12 BW25113 carrying the pooled plasmids of the ASKA library ([2]; Replicate 2) [µg/mL]	MIC value of E. coli K-12 BW25113 carrying the empty plasmid of the ASKA library ([2]; Replicate 3) [µg/mL]	MIC value of E. coli K-12 BW25113 carrying the pooled plasmids of the ASKA library ([2]; Replicate 3) [µg/mL]	MIC (freshly prepared AMP) [3, 6] [µg/mL]	MIC (pre-incubated AMP) [3, 7] [µg/mL]	MIC (pre-incubated AMP) [3, 6] [µg/mL]	MIC (pre-incubated AMP) [3, 8] [µg/mL]	also measured
CC[C@H](C)[C@H](NC(=O)[C@H](CCCCN)NC(=O)[C@H](CCC(=O)O)NC(=O)[C@H](CCCCN)NC(=O)[C@H](CO)NC(=O)[C@H](CCCCN)NC(=O)[C@H](CCCNC(=N)N)NC(=O)[C@H](Cc1ccccc1)NC(=O)[C@H](Cc1ccccc1)NC(=O)[C@H](CC(=O)O)NC(=O)CNC(=O)[C@H](CC(C)C)NC(=O)[C@@H](N)CC(C)C)C(=O)NCC(=O)N[C@@H](CCCCN)C(=O)N[C@@H](CCC(=O)O)C(=O)N[C@@H](Cc1ccccc1)C(=O)N[C@@H](CCCCN)C(=O)N[C@@H](CCCNC(=N)N)C(=O)N[C@H](C(=O)N[C@H](C(=O)N[C@@H](CCC(N)=O)C(=O)N[C@@H](CCCNC(=N)N)C(=O)N[C@H](C(=O)N[C@@H](CCCCN)C(=O)N[C@@H](CC(=O)O)C(=O)N[C@@H](Cc1ccccc1)C(=O)N[C@@H](CC(C)C)C(=O)N[C@@H](CCCNC(=N)N)C(=O)N[C@@H](CC(N)=O)C(=O)N[C@@H](CC(C)C)C(=O)N[C@H](C(=O)N1CCC[C@H]1C(=O)N[C@@H](CCCNC(=N)N)C(=O)N[C@H](C(=O)N[C@@H](CCC(=O)O)C(=O)N[C@@H](CO)C(=O)O)[C@@H](C)O)C(C)C)[C@@H](C)CC)C(C)C)[C@@H](C)CC [LL37, cathelicidin antimicrobial peptide LL-37]	100	14.45	14.45	12.04	17.34	14.45	14.45	17.4	17.4	17.4	17.4	–
CC1(C)S[C@@H]2[C@H](NC(=O)[C@H](N)c3ccccc3)C(=O)N2[C@H]1C(=O)O [APC, Ampicillin]	–	–	–	–	–	–	–	–	–	–	–	MIC ([1]; Escherichia coli, BW25113, 24 h, read-out: MIC): 6.2 µg/mL; integral (measured integral data) [4, 9]: 10905.8; normalized integral (integral normalized to wild-type) [4, 9]: 0.2843; integral (measured integral data) ([4]; replicate 2): 12217.4; normalized integral (integral normalized to wild-type) ([4]; replicate 2): 0.3185; integral (measured integral data) ([4]; replicate 3): 11200; normalized integral (integral normalized to wild-type) ([4]; replicate 3): 0.292; integral (measured integral data) ([4]; replicate 4): 11338.5; normalized integral (integral normalized to wild-type) ([4]; replicate 4): 0.2956; integral (measured integral data) ([4]; replicate 5): 13182.1; normalized integral (integral normalized to wild-type) ([4]; replicate 5): 0.3436; MIC ([2]; BW25113, Replicate 1, read-out: MIC value of E. coli K-12 BW25113 carrying the empty plasmid of the ASKA library): 4 µg/mL; MIC ([2]; BW25113, Replicate 1, read-out: MIC value of E. coli K-12 BW25113 carrying the pooled plasmids of the ASKA library): 256 µg/mL; MIC ([2]; BW25113, Replicate 2, read-out: MIC value of E. coli K-12 BW25113 carrying the empty plasmid of the ASKA library): 4 µg/mL; MIC ([2]; BW25113, Replicate 2, read-out: MIC value of E. coli K-12 BW25113 carrying the pooled plasmids of the ASKA library): 256 µg/mL; MIC ([2]; BW25113, Replicate 3, read-out: MIC value of E. coli K-12 BW25113 carrying the empty plasmid of the ASKA library): 4 µg/mL; MIC ([2]; BW25113, Replicate 3, read-out: MIC value of E. coli K-12 BW25113 carrying the pooled plasmids of the ASKA library): 256 µg/mL
RFRPPIRRPPIRPPFYPPFRPPIRPPIFPPIRPPFRPPLGPFP [BAC5, Bactenecin 5]	7	5.79	4.82	5.79	5.79	5.79	4.82	14.5	14.5	14.5	14.5	MIC (freshly prepared AMP) [3, 7]: 14.5 µg/mL; MIC (freshly prepared AMP) [3, 8]: 14.5 µg/mL
